According to patent US6489307B1, “Antisense compositions targeted to β1-adrenoceptor-specific mRNA and methods of use” (University of Florida, priority 1998, dated 2002):

Columns and labels:
Format in all cases: in vivo, rat (SHR)
preprorenin mRNA = test: RT-PCR and Southern blotting, renal cortex
Procedure: (§1) At different time points after the single injection of β1-AS-ODN or inverted ODN, rats were euthanized, and the renal cortex was dissected from the left kidneys, immediately dipped into RNA later tissue storage buffer (Ambion), and stored at −20° C. Total RNA was extracted with RNAwiz reagent (Ambion) and quantified by spectrophotometer. RNA samples from 4 to 5 rats from each time point were pooled. RNA (5 μg) was digested by DNase I and reverse-transcribed by Superscript reverse transcriptase (GIBCO BRL) at 42° C. for 50 min. and 1/20 of the reverse transcription (RT) product was used to run a polymerase chain reaction (PCR) for 20 cycles. PCR primers for β1-AR were 5′-[…]-3′ (SEQ ID NO:199) (forward) and 5′-[…]-3′ (SEQ ID NO:200) (reverse) and yielded products of 432 bp, which spanned the AUG start codon. Primers for preprorenin were 5′-[…]-3′ (SEQ ID NO:201) (forward) and 5′-[…]-3′ (SEQ ID NO:202) (reverse) and yielded products of 362 bp.
(§2) Primers for GAPDH were 5′-[…]-3′ (SEQ ID NO:203) (forward) and 5′-[…]-3′ (SEQ ID NO:204) (reverse) and yielded products of 505 bp (Jo et al., 1996). RT-PCR products were subjected to Southern blotting, hybridized with psoralen-biotin-labeled cDNA probes, and detected with nonisotopic kits (Ambion). After the membranes had been exposed to x-ray films, the intensity of β1-AR and preprorenin mRNAs was quantified by densitometry and normalized with GAPDH mRNA levels. The studies were repeated at least twice.

β1-AR mRNA = test: RT-PCR and Southern blotting, renal cortex; details: 0.5 mg/kg i.v., semiquantitative RT-PCR
Procedure: as §1, §2

[1] = system: spontaneously hypertensive rats; test: Left ventricular hypertrophy after 2-month treatment; details: end of 2-month treatment; vs controls
Procedure: Adult spontaneously hypertensive rats (300-350 g) were treated with β1-AS-ODNs for more than 2 months. The blood pressure was reduced by 20-30 mmHg persistently throughout the treatment period (FIG. 11). Control animals receiving saline or INV-ODNs had no change in blood pressure. At the end of a 2-month treatment, the hearts were dissected and weighed.

β1-AR = test: Quantitative autoradiography of brain, heart and kidney sections
Procedure: (§3) Four days after injection of 1 mg/kg β1-AS-ODN (n=6) or saline (n=6), rats were killed, and tissues were removed and frozen in dry ice. Coronal sections of brain, horizontal sections of heart, and sagittal sections of kidney (20 μm) were cut on a cryostat (Microm, Thornwood, N.Y.) at ^−20° C. and mounted on microscope slides. Every seventh slide was stained with hematoxylin and eosin for histology. Tissue sections were preincubated in Krebs buffer (mmol/L: NaCl 118.4, KCl 4.7, MgSO4 1.2, CaCl2 1.27 and NaH2PO4 10.0, pH 7.1) containing 0.1 mmol/L GTP, 0.1 mmol/L ascorbic acid, and 10 μmol/L PMSF for 30 minutes at 25° C. Sections were then incubated in Krebs buffer containing 0.1 mmol/L ascorbic acid and 10 μmol/L PMSF with 100 pmol/L ICYP at 25° C. for 150 minutes in the presence of 1 μmol/L (^−) propranolol, 100 nmol/L ICI 118,551 ([…]), or 100 nmol/L CGP20712A (β1-selective antagonist) to distinguish nonspecific, β1−, and β2-bindings. Labeled sections were rinsed in the same buffer, followed by two 15-min. washes at 37° C. in the buffer, and rinsed in distilled water at 25° C. (Matthews et al., 1994). Dried sections were then exposed to x-ray films. The images were quantified with a computerized image analysis system (MCID, Imaging Research) and normalized with ^125I standards.
(§4) Four days after injection of 0.5 mg/kg β1-AS-ODN (n=6) or saline (n=6), rats were euthanized, and the right kidneys were removed and frozen in dry ice. Sagittal sections of kidney (20 μm) were cut on a cryostat (Microm) at −20° C. and mounted on microscope slides. Every seventh slide was stained with hematoxylin and eosin for histology. Receptor autoradiography was performed as described (Matthews et al., 1994) with 100 pmol/L ICYP at 25° C. for 150 min. in the presence of 1 μmol/L (−)-propranolol, […] ICI 118,551 (β2-selective antagonist), or 100 nmol/L CGP 20712A (β1-selective antagonist) to distinguish nonspecific, β1, and β2-bindings. The images were quantified with a computerized image analysis system (MCID, Imaging Research) and normalized with ^125I standards.
(§5) Four days after injection of 1 mg/kg β1-AS-ODN (n=6) or saline (n=6), rats were sacrificed and tissues were removed and frozen in dry ice. Coronal sections of brain, horizontal sections of heart and sagittal sections of kidney (20 μm) were cut on a cryostat (Microm) at −20° C. and mounted on microscope slides. Every seventh slide was stained with haematoxylin and eosin for histology. Tissue sections were preincubated in Krebs buffer (NaCl 118.4 mM, KCl 4.7 mM, MgSO4 1.2 mM, CaCl2 1.27 mM, NaH2PO4 10.0 mM, pH 7.1) containing 0.1 mM guanosine triphosphate (GTP), 0.1 mM ascorbic acid and 10 μM phenylmethylsulfonylfluoride (PMSF) for 30 min at 25° C. Sections were then incubated in Krebs buffer containing 0.1 mM ascorbic acid and 10 μM PMSF with 100 pM I-CYP at 25° C. for 150 min, in the presence of 1 μM (−)propranolol, 100 nM IC1118,551 (β2-selective antagonist) or 100 nM CGP20712A (β1-selective antagonist) to distinguish non-specific, β1- and β2-bindings. Labeled sections were rinsed in the same buffer, followed by two 15-min washes at 37° C. in the buffer and rinsed in distilled water at 25° C. (Matthews et al., 1994). Dried sections were then exposed to X-ray films (Kodak Biomax-MR). The images were quantitated with a computerized image analysis system (MCID, Imaging Research) and normalized using ^125I-standards.

β2-ARs = test: as above
Procedure: as §3, §4, §5

[2] = Immune response (gel immunodiffusion, C-reactive protein); details: after repeated administration
From the text: Safety profiles including liver transaminases, hematology, immune response and tissue pathology were investigated during three repeated injections of β1-AS-ODNs for extended periods of time.
C-reactive protein (CRP), a clinical index for immune reaction, was found negative in all animals.

[3] = 4 days after i.v. administration

5′-CCGCGCCCATGCCGA-3′ (phosphorothioate backbone, further chemistry not given here) [β1-AS-ODN, 15-mer antisense ODN targeted to the AUG start codon of rat β1-AR mRNA]
preprorenin mRNA level in renal cortex (preprorenin mRNA; 4 days after injection): 62 % of control
preprorenin mRNA decrease (preprorenin mRNA; by day 18): completely reversed
level of steady-state β1-AR mRNA in renal cortex (β1-AR mRNA): did not reduce
level of steady-state β1-AR mRNA in renal cortex (β1-AR mRNA; listed as AS-ODN): no reduction
left ventricular hypertrophy (LV/BW) [1]: significantly reduced
overall density of β1-subtype in kidney (β1-AR; 4 days after 0.5 mg/kg, from 23.5±2.1): 15.4 ± 3.3 fmol/mg
β1-AR density in renal cortex (β1-AR; 4 days after i.v. 1 mg/kg, from 26.4±3.1): 17.4 ± 3.3 fmol/mg
β1-AR density in cardiac ventricles (β1-AR; 4 days after i.v. 1 mg/kg, from 30.2±2.1): 20.6 ± 2.5 fmol/mg
distribution of β-ARs in forebrain and brain stem regions (β1-AR; [3]): no detectable changes
distribution and concentration of β2-subtype in kidney (β2-ARs; 4 days after 0.5 mg/kg): remained unchanged
β2-ARs in any tissues (β2-ARs; [3]): not affected
C-Reactive Protein [2]: negative
Antibody to ODN ([2]; gel immunodiffusion): no detectable antibody
